{"source": "patent US10370391B2", "about": "“Hydrogen peroxide-activable, anti-oxidant compounds and methods using same” (Beth Israel Deaconess Medical Center, Inc., priority 2014, dated 2019)", "key": {"TNF-α": {"system": "TNF-α", "assay": "TNF-α level in LPS-stimulated macrophage cells", "assay_type": "cell-based, mouse", "description": "(§1) FIG. 4, comprising FIGS. 4A-4F, is a set of graphs, bar graphs and images illustrating anti-oxidant and anti-inflammatory effects of BRAP in vitro. […] The generation of ROS was monitored by flow cytometry as an indicator of DCF fluorescence. Fluorescence was analyzed in 10,000 cells with excitation at 480 nm and emission at 530 nm. FIG. 4C: Protective effect of BRAP on H2O2— stimulated adult rat cardiomyocytes. V=vehicle, *<0.05 vs. V+H2O2 (n=4). […] (n=4/group).\n(§2) The anti-inflammatory effects of BRAP on LPS-stimulated cells were investigated by measuring the level of inflammatory cytokines such as TNF-α (tumor necrosis factor-alpha) and iNOS (inducible nitric oxide synthases) (FIGS. 4E-4F). […] These observations indicate that BRAP, as well as BRAP-encapsulated PLGA microparticles, is able to scavenge overproduced H2O2 and serve as a H2O2-activable anti-oxidant. Further, the enhanced anti-oxidant activity of BRAP is derived from the combined effects of H2O2-scavenging boronic esters and HBA generation after H2O2-mediated boronate oxidation."}, "hepatic I/R injury": {"system": "hepatic I/R injury", "assay": "Mouse model of hepatic I/R injury", "assay_type": "in vivo", "conditions": "ip at reperfusion", "description": "FIG. 5, comprising FIGS. 5A-5D, is a set of images and bar graphs illustrating beneficial effects of BRAP in hepatic I/R (1 hour ischemia/12 hour reperfusion) injury. FIG. 5A: Hematoxylin and eosin (H/E) staining, DHE staining, and TUNEL staining of mouse liver after injection with HBA or BRAP. FIGS. 5B-5D: Quantitative analysis of serum ALT levels (FIG. 5B), cleaved caspase-3 protein expression (FIG. 5C), and TNF-α protein expression (FIG. 5D) after I/R injury. *p<0.01 relative to Veh I/R. †p<0.05 relative to HBA I/R (n=3˜4/group). Actin protein expression was used as an internal control for protein loading.\nExperiments to evaluate whether BRAP reduces ROS generation and inhibits apoptosis were performed in a mouse model of […] I/R injuries. I/R was induced first by 1 hour of ligation of hepatic artery and portal vein followed by reperfusion of hepatic artery. BRAP or HBA was then administrated intraperitoneally (ip) at the time of reperfusion.\nHepatic I/R surgery was performed in 12 week-old male mice. Briefly, mice were anaesthetized, and midline incision was performed for laparotomy. After identifying the portal triad and biliary tree, the main trunk of hepatic artery and portal vein were clamped with vascular clip except for the vasculatures to the right lower lobe to achieve ischemic injury to approximately 70% of the liver. After 1 hour of ischemia, reperfusion was achieved by releasing the vascular clip. No vascular clamp was done for the sham group of mice.\nFor liver apoptosis assay, terminal deoxynucleotidyl transferase dUTP nick end labeling (TUNEL) staining was performed using a DeadEnd™ Fluorometric TUNEL kit (Promega, Madison, Wis.). Tissue sections were stained for nuclei (4′,6-diamidino-2-phenylindole (DAPI) staining) and apoptotic nuclei (TUNEL staining) and analyzed using a confocal laser scanning microscope. For heart tissues, TUNEL staining was performed using in situ cell death detection Kit, fluorescein (Roche Applied Science, Indianapolis, Ind.). To distinguish cardiomyocyte from non-cardiomyocyte nuclei, triple stain for nuclei (DAPI staining), apoptotic nuclei (TUNEL staining), and cardiomyocytes (α-Actinin staining) was used, and the stained sections were analyzed using confocal microscopy. A minimum of ˜10 high power fields with ˜2000 nuclei/field were counted for each sample.\nHeart tissues were collected for molecular analyses were performed in Bae, et al., 2010, Am J Physiol Heart Circ Physiol 299:H1374. For RT-PCR ribosomal 18S primers acted as internal controls and all RT-PCR signals were normalized to the 18S signal of the corresponding RT products. For Western blot analysis, the protein content was measured using BCA assay. Actin protein expression was used as an internal control for protein loading.\nThe optimal cutting temperature (OCT)-embedded tissues were fixed in 4% paraformaldehyde. Tissue sections were incubated with 5 μM dihydroethidium (DHE, Sigma-Aldrich) at 37° C. for 30 min in a humidified chamber protected from light. Then, 4′,6-diamidino-2-phenylindole (DAPI) was applied. Images were acquired by confocal fluorescence microscope."}, "[1]": {"system": "nitric oxide production in LPS-treated cells", "assay": "Nitric oxide generation in LPS-treated cells (Griess reaction)", "assay_type": "cell-based", "conditions": "HBA alone", "description": "as §1\nNitric oxide is one of major sources of oxidative stress and a well-known pro-inflammatory mediator in the pathogenesis of inflammation (Lundberg, et al., 1997, Nature Medicine 3:30). The effects of BRAP on the generation of nitric oxide in LPS-treated cells were studied using a colorimetric assay based on the Griess reaction."}, "[2]": {"system": "mouse macrophage (RAW 264.7) cells stimulated by LPS", "assay": "Intracellular ROS generation in LPS-stimulated macrophages (DCFH-DA, flow cytometry)", "assay_type": "cell-based", "conditions": "HBA 0.5 mM; LPS 1 μg/mL", "description": "as §1\nThe anti-oxidant activities of BRAP were examined using mouse macrophage (RAW 264.7) and fibroblast (NIH/3T3) cells stimulated by LPS (lipopolysaccharide) (FIGS. 4A-4B). Intracellular ROS production in the stimulated cells was analyzed by flow cytometry using DCFH-DA ([…]-diacetate), which can be oxidized by the action of various intracellular oxidants such as H2O2 and hydroxyl radical to become fluorescent […] (DCF) (Kim, et al., 2011, Biomat. 32:3021; Cho, et al., 2012, Adv. Funct. Mat. 22:4038). Untreated cells have no significant DCF fluorescence."}, "[3]": {"assay": "H2O2 scavenging by peroxalate chemiluminescence (diphenyl oxalate, rubrene)", "conditions": "H2O2 solution 10 μM; HBA alone 10 μM", "description": "FIG. 21 is a bar graph illustrating H2O2-scavenging by BRAP-encapsulated PLGA microparticles. BRAP-encapsulated PLGA microparticles were incubated in H2O2 solution (10 μM) for 10 minutes, and the level of H2O2 was determined by peroxalate chemiluminesce using rubrene (1 mg) and diphenylperoxalate (10 mg).\nWithout wishing to be limited by any theory, BRAP could scavenge H2O2 during its H2O2-mediated boronate oxidation. This possibility was investigated using peroxalate chemiluminescence. Peroxalate chemiluminescence has been used as a versatile tool for the detection of a variety of chemical species including fluorescent molecules and H2O2 because of its excellent specificity and simplicity (Hadd, et al., 1999, J. Chem. Educ. 76:1237; Lee, et al., 2011, Bull. Korean Chem. Soc. 32:2187). […] A majority of H2O2 was scavenged by the same concentration of BRAP within 1 minutes.\nThe ability of the boronate compound to scavenge H2O2 was evaluated by measuring the chemiluminescence intensity after the reaction with diphenyl oxalate solution including rubrene. The boronate (1 μM, or 10 μM) was added in the H2O2 solution (10 μM). After 1 min reaction with H2O2, diphenyl oxalate solution was added to the H2O2 solution, and the chemiluminescence intensity was measured by using a luminometer (Femtomaster FB 12, Zylux Corporation, TN, US; FIG. 13).\nThe ability of BRAP to scavenge H2O2 was evaluated by measuring the chemiluminescence intensity after the reaction with diphenyl oxalate solution including rubrene. BRAP (1 μM, 5 μM, 10 μM, 20 μM) was added in the H2O2 solution (10 μM). After 1, 5 or 10 min reaction with H2O2, diphenyl oxalate solution was added to the H2O2 solution, and the chemiluminescence intensity was measured by using a luminometer (Femtomaster FB 12, Zylux Corporation, TN, US)."}, "iNOS": {"system": "iNOS", "assay": "iNOS level in LPS-stimulated macrophage cells", "assay_type": "cell-based, mouse", "description": "as §1, §2"}}}
{"smiles": "OCc1ccc(O)cc1", "note": "[HBA, 4-hydroxybenzyl alcohol, reference compound]", "values": [{"measurement": "TNF-α level", "setting": "TNF-α", "result": "reduced the expression of TNF-α but only at a higher dose than BRAP"}, {"measurement": "ROS generation (DHE staining) in liver", "setting": "hepatic I/R injury", "result": "suppressed"}, {"measurement": "protection from I/R-induced liver damage (serum ALT)", "setting": "hepatic I/R injury", "result": "much less potent protective effect"}, {"measurement": "hepatic damages (histology, H/E)", "setting": "hepatic I/R injury; 1 hour ischemia/12 hour reperfusion, same dose of HBA and BRAP", "result": "minimal therapeutic effects"}, {"measurement": "TNF-α protein expression", "setting": "hepatic I/R injury; same dose of HBA and BRAP", "result": "minimal inhibitory effects"}, {"measurement": "cleaved caspase-3 protein expression", "setting": "hepatic I/R injury; same dose of HBA and BRAP", "result": "minimal inhibitory effects"}, {"measurement": "hepatic apoptosis (TUNEL)", "setting": "hepatic I/R injury; same dose of HBA and BRAP", "result": "modest inhibitory effects"}, {"measurement": "concentration at which nitric oxide production was inhibited", "setting": "[1]", "result": "higher than 0.5 mM"}, {"measurement": "inhibition of LPS-induced ROS generation", "setting": "[2]", "result": "moderate inhibitory effects"}, {"measurement": "chemiluminescence intensity (H2O2 scavenging)", "setting": "[3]", "result": "did not reduce chemiluminescence intensity"}, {"measurement": "iNOS level", "setting": "iNOS", "result": "failed to reduce iNOS level"}]}
